Source: patent US20080220083A1, “Pharmaceutical Agent Comprising Blood Components <10 Kda And Their Use For Prophylaxis And Treatment Of Defects Of The Immune System” (priority 2004, published 2008)

Test system: guinea pig T lymphocytes
Test: rosette test on guinea pig T lymphocytes in immunosuppressed guinea pigs
Format: in vivo
Protocol: The composition of the invention was also tested in vivo in various animal systems. Using the rosette test on guinea pig T lymphocytes, the state of cellular immunity under the influence of the composition according to the invention in combination with Oxoplatin, Campto, Taxol and Eloxatin was investigated. In each test, the improvement of the T lymphocyte state in immunosuppressed guinea pigs after administration of the composition according to the invention was tested. Prior to testing, the level of T lymphocytes in the guinea pigs was determined using the rosette test, and subsequently, the decrease in the amount of T lymphocytes caused by the immunosuppressant Azathioprin was determined. A second determination of the T lymphocytes was made seven days after application of Azathioprin. This was followed by subcutaneous application of the composition of the invention into the laboratory animals. The last determination of the T lymphocyte count in the guinea pigs was made 14 to 19 days after application of the composition according to the invention.

| SMILES | drop in production of rosettes following application of the cytostatic agent (guinea pigs, rosette test) | drop in production of rosettes following application of the cytostatic agent (guinea pig, in vivo) |
| --- | --- | --- |
| CCc1c2c(nc3ccc(OC(=O)N4CCC(N5CCCCC5)CC4)cc13)-c1cc3c(c(=O)n1C2)COC(=O)[C@]3(O)CC [Campto] | 23% | – |
| O=C1[O][Pt]2([NH][C@@H]3CCCC[C@H]3[NH]2)[O]C1=O [Eloxatin] | – | 22% |
| N.N.[Cl-].[Cl-].[OH-].[OH-].[Pt+4] [Oxoplatin] | – | about 30% |
| CC(=O)O[C@H]1C(=O)[C@@]2(C)[C@H]([C@H](OC(=O)c3ccccc3)[C@]3(O)C[C@H](OC(=O)[C@H](O)[C@@H](NC(=O)c4ccccc4)c4ccccc4)C(C)=C1C3(C)C)[C@]1(OC(C)=O)CO[C@@H]1C[C@@H]2O [Taxol] | – | 16% |
